Columns and labels:
HUVECs and HCMECs = test: In vivo multipotency: polylactic acid scaffolds with pre-treated endothelial cells implanted into nude mice; parameters: species or system immunodeficient nude mice; conditions: for co-expression of Qtracker label with osteocalcin, SOX9 or adiponectin in implants (immunohistochemistry): cells pre-labeled with quantum dots, pre-treated, implanted 6 weeks; for bone, cartilage or fat products in implanted scaffolds (alizarin red, alcian blue, oil red O): cells pre-treated, differentiation medium injected locally every 72 h for 6 weeks
Protocol: Cells were grown in StemPro osteogenic, chondrogenic, or adipogenic culture medium (Invitrogen). Alkaline phosphatase staining was performed using the alkaline phosphatase kit and protocol (Sigma-Aldrich) on cultures grown in osteogenic medium for 7 d to detect osteoblasts. Alizarin Red (Sigma-Aldrich) staining was performed for 30 min on cultures grown in osteogenic medium for 21 d to detect matrix calcification. Alcian Blue (Sigma) staining was used to stain chondrocyte proteoglycans for 5 minutes in cultures grown in chondrogenic medium for 14 d. Oil Red O (Sigma-Aldrich) staining was performed for 15 min on cultures grown in adipogenic medium for 7 d. For in vivo analysis, endothelial cells were labeled with fluorescent quantum dots using the Qtracker 525 Cell Labeling Kit (Invitrogen). Cells were treated in culture to induce EndMT then absorbed into OPLA polylactic acid scaffolds (BD Biosciences). Scaffolds were surgically implanted subcutaneously into immunodeficient nude mice (Nu/Nu strain; Charles River Laboratories). Local injection of StemPro differentiation medium (described above) was performed in the area of the implants every 72 h for 6 weeks. Scaffolds were cryosectioned and stained with Alizarin Red, Alcian Blue, or Oil Red O as described above. All procedures were reviewed and approved by the Institutional Animal Care and Use Committee at Harvard Medical School.

ALK2 = molecular target: T1, ALK2 (Homo sapiens, UniProt Q04771); test: ALK2 phosphorylation: immunoprecipitation with ALK2 antibodies, phospho-tyrosine immunoblotting; format: cell-based; conditions: 10 ng/mL, 15 minutes
T1 construct: Phosphorylation of this receptor was therefore examined in cell lysates; endogenous in cells; host or cells: primary HUVEC and HCMEC
T1 sequence (Q04771 21-509): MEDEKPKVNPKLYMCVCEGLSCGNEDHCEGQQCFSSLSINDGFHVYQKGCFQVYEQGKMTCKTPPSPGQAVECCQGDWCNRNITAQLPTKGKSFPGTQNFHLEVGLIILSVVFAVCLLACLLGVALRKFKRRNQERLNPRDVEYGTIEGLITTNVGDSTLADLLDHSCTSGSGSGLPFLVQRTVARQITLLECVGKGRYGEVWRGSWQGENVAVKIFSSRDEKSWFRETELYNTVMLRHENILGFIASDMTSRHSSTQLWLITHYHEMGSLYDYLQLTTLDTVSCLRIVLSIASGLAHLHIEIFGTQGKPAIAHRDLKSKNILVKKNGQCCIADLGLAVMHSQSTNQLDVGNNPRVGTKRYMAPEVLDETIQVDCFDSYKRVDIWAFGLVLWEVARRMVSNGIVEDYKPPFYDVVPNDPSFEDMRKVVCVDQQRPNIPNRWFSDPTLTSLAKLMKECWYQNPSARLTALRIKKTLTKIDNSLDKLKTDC
Protocol: Human umbilical vein endothelial cells (HUVEC) and human cutaneous microvascular endothelial cells (HCMEC) were provided by J. Bischoff (Children's Hospital Boston) and isolated as previously described^35. […] Cells were grown in culture using EGM-2 medium (Cambrex), containing 10% FBS and 1% Penicillin/Streptomycin, followed by human endothelial serum free medium (Gibco) 24 hours prior to all experimental conditions. Bone marrow derived mesenchymal stem cells (ScienCell Research Laboratories) were grown in mesenchymal stem cell medium (ScienCell Research Laboratories). Human corneal fibroblasts, from a stock initially provided by E. Hay (Harvard Medical School), were grown in RPMI medium, containing 10% FBS and 1% Penicillin/Streptomycin. […]
Immunoassays were performed using the following antibodies at concentrations (and using protocols) recommended by the respective manufacturers: FSP-1 (H00006275-M01; Stressgen), ALK2 (sc-5671), Phospho-tyrosine (sc-7020), VE-cadherin (sc-6458), TIE2 (sc-324, sc-9026), STRO-1 (sc-47733), CD44 (sc-71220), CD90 (sc-9163), Osteocalcin (sc-74495, sc-23790), SOX9 (sc-20095), COL2A1 (sc-59958, sc-52658), PPARγ2 (sc-22022; Santa Cruz Biotechnology), vWF (ab68545; Abcam); His (A00174; GenScript); α-SMA (A5228), β-actin (A1978; Sigma-Aldrich). […] Images were acquired using a Nikon 80i fluorescence microscope. […]

| ALK2 receptor phosphorylation (phospho-tyrosine) (ALK2) | Substance | co-expression of Qtracker label with osteocalcin, SOX9 or adiponectin in implants (immunohistochemistry) (HUVECs and HCMECs) | bone, cartilage or fat products in implanted scaffolds (alizarin red, alcian blue, oil red O) (HUVECs and HCMECs) |
| --- | --- | --- | --- |
| induced receptor phosphorylation | BMP4: Recombinant BMP4 protein (R&D Systems), ALK2 activating ligand, used at 10 ng/mL | co-expression of the Qtracker with osteocalcin, SOX9, or adiponectin | formation of bone, cartilage, or fat products |
| induced receptor phosphorylation | TGF-β2: Recombinant TGF-β2 protein (R&D Systems), ALK2 activating ligand, used at 10 ng/mL | co-expression of the Qtracker with osteocalcin, SOX9, or adiponectin | formation of bone, cartilage, or fat products |
